These results are taken from PMC4774911, “Biochemical Screening of Five Protein Kinases from Plasmodium falciparum against 14,000 Cell-Active Compounds” (PLoS ONE, 2016).

As usually defined, the IC50 is the midpoint of a concentration-inhibition curve. Higher therefore signals a need for much substance.

“And” between values parts separate entries of the source, which are not always exact repeats. Equal entries are not always repeated.

What all share (assay): biochemical
In experiment [1] the target is STK38 (Homo sapiens, UniProt Q15208).
Experiment [2] deals with T1, MAP3K7 (Homo sapiens, UniProt O43318).
T1 sequence (O43318 1-606): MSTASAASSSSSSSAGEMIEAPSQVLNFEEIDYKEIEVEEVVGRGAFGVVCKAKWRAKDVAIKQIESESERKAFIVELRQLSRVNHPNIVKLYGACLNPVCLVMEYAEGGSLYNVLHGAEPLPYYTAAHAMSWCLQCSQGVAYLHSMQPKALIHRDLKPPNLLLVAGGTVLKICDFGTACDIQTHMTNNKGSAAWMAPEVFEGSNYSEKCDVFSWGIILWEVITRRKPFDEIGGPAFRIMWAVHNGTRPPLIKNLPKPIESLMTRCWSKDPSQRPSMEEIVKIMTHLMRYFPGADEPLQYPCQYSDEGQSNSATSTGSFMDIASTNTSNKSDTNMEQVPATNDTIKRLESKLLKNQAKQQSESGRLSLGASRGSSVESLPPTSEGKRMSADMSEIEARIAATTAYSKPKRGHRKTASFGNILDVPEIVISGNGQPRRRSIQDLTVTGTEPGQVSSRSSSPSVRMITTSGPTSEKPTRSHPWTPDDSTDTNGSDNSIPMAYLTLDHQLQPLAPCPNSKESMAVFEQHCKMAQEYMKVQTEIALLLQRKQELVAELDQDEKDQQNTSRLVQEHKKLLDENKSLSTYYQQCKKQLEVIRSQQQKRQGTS

For experiment [3], the target named is PRKCQ (Homo sapiens, UniProt Q04759).
In experiment [4] the target is T2, IKBKB (Homo sapiens, UniProt O14920).
T2 sequence (O14920 1-756): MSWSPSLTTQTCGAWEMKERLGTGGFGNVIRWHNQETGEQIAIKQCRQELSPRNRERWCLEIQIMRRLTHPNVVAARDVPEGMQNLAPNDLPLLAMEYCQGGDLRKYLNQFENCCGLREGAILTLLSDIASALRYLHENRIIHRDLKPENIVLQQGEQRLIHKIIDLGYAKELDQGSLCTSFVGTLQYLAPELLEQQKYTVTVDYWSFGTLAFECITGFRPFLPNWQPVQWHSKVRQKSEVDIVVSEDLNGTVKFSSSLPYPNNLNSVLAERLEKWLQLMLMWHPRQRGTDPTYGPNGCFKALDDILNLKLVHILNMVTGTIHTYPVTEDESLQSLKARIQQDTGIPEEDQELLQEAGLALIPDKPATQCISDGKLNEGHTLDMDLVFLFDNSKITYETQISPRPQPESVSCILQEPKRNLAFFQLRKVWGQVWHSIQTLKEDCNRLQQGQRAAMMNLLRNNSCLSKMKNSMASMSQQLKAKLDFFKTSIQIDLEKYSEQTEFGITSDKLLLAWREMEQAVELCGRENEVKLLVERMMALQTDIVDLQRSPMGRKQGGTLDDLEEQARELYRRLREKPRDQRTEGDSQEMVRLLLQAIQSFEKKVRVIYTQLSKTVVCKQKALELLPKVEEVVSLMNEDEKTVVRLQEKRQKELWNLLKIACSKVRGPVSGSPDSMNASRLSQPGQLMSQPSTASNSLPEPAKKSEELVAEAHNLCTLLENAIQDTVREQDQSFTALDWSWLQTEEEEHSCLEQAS

The target of experiment [5] is BRAF (Homo sapiens, UniProt P15056).
In experiment [6] the target is MAP2K2 (Homo sapiens, UniProt P36507).
Experiment [7] deals with T3, TP53RK (Homo sapiens, UniProt Q96S44).
T3 sequence (Q96S44 1-253): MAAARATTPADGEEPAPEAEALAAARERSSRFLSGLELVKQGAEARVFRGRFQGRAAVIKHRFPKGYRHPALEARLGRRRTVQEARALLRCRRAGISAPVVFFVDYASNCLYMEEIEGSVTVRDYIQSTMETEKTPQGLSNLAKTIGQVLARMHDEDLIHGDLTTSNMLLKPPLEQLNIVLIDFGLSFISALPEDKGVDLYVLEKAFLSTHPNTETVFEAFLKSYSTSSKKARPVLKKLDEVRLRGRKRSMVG

The target of experiment [8] is CABC1 (Homo sapiens, UniProt Q8NI60).
Experiment [9] addresses T4, PLK4 (Homo sapiens, UniProt O00444).
T4 sequence (O00444 1-970): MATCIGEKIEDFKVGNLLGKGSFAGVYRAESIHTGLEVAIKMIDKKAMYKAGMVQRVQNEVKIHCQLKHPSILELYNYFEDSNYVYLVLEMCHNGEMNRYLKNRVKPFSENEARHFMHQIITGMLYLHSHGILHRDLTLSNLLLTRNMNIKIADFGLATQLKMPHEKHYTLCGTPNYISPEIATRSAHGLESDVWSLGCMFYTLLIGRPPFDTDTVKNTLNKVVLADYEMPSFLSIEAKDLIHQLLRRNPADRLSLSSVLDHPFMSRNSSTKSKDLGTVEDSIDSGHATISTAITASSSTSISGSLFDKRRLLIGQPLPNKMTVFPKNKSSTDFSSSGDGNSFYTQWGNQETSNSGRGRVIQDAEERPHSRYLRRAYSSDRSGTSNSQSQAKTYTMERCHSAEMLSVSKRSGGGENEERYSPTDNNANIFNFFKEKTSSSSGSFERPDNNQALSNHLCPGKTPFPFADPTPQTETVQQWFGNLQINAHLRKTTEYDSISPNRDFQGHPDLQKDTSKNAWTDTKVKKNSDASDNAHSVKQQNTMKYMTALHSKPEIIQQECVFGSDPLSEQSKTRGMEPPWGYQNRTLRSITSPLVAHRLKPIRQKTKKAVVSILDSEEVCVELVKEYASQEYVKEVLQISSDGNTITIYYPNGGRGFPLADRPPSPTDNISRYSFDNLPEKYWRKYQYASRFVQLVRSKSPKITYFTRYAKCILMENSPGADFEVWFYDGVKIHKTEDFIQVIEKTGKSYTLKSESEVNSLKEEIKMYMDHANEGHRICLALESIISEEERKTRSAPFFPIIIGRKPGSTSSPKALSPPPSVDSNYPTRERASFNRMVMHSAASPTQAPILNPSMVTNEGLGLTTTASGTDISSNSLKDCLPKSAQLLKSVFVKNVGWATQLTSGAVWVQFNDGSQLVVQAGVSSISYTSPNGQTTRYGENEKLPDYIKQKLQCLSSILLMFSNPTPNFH

For experiment [10], the target named is TYK2 (Homo sapiens, UniProt P29597).
TYK2, sequence (P29597 whole entry): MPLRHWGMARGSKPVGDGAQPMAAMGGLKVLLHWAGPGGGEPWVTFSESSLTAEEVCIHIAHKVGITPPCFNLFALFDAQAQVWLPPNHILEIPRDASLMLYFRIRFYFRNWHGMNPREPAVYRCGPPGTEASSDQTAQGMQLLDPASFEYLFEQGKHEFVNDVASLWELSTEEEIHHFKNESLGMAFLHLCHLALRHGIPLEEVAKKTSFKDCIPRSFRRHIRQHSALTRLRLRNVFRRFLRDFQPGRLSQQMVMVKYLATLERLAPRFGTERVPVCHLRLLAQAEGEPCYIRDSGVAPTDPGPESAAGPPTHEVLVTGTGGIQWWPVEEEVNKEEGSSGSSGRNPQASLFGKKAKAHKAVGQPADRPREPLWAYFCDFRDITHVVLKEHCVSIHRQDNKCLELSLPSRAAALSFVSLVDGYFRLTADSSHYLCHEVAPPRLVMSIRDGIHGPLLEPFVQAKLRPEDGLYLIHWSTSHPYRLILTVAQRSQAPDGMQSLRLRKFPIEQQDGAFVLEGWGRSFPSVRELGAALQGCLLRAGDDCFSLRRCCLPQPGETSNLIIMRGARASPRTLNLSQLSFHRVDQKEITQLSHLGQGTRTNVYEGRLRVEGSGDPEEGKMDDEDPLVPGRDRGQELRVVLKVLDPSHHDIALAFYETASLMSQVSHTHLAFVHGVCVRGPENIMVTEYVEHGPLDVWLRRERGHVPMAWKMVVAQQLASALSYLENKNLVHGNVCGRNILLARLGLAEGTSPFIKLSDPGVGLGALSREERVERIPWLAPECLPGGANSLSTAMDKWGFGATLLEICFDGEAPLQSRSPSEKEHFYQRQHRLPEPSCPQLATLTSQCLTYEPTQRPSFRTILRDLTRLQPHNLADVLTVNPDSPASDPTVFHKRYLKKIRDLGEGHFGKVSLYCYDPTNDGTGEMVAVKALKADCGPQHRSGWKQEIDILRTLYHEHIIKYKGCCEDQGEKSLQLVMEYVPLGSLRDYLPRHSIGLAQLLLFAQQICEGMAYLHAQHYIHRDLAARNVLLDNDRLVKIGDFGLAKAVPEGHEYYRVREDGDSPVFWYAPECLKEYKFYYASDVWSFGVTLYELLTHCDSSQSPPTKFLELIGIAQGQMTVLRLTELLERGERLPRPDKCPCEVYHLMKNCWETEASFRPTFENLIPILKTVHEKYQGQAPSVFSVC

BRAF, sequence (P15056 whole entry): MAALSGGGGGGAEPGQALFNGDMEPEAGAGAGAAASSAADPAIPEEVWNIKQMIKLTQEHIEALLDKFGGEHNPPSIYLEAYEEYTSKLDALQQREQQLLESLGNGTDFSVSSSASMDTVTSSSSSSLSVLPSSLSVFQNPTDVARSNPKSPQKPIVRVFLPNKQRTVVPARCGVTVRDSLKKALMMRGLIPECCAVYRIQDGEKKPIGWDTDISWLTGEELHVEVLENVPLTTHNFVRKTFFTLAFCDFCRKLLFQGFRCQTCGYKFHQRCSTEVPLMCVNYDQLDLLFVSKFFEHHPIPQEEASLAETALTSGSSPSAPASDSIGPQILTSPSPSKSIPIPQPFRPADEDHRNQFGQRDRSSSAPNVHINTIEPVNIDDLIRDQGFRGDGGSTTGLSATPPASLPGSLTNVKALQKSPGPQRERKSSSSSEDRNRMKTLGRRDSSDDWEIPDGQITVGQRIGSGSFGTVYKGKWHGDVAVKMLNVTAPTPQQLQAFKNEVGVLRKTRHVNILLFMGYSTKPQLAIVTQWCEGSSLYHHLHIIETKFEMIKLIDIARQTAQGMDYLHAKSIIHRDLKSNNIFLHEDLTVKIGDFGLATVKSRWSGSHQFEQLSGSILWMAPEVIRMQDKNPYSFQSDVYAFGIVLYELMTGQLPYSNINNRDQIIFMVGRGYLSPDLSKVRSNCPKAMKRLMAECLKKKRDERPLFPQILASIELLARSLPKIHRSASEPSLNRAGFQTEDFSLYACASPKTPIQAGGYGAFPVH
STK38, sequence (Q15208 whole entry): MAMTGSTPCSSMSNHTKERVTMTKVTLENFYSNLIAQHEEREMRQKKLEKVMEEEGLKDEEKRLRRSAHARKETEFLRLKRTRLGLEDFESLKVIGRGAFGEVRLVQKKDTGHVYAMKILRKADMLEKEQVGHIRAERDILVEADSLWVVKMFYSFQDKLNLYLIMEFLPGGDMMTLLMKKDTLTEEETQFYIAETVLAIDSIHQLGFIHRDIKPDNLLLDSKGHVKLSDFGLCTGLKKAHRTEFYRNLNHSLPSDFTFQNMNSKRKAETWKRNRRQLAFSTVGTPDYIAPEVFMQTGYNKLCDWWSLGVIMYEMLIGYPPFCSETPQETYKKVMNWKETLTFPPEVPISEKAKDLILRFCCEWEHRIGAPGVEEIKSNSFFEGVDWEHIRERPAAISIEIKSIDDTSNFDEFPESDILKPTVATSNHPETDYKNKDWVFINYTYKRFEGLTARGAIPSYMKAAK
CABC1, sequence (Q8NI60 whole entry): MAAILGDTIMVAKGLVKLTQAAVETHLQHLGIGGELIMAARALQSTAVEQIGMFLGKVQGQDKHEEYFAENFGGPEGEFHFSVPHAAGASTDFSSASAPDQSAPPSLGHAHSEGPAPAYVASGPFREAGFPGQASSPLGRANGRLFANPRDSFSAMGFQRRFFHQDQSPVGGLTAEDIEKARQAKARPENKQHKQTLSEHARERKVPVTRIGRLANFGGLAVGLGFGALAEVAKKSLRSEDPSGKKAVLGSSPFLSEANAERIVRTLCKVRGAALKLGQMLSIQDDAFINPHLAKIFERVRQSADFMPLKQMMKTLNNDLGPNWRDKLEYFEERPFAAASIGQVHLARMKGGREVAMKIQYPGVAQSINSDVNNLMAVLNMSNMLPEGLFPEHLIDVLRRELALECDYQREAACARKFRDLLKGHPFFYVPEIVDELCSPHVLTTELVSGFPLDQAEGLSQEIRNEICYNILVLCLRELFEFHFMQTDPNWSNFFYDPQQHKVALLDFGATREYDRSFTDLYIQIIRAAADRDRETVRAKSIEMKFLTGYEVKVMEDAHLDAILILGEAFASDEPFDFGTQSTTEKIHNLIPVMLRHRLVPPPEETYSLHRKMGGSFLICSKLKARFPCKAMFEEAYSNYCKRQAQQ
PRKCQ, sequence (Q04759 whole entry): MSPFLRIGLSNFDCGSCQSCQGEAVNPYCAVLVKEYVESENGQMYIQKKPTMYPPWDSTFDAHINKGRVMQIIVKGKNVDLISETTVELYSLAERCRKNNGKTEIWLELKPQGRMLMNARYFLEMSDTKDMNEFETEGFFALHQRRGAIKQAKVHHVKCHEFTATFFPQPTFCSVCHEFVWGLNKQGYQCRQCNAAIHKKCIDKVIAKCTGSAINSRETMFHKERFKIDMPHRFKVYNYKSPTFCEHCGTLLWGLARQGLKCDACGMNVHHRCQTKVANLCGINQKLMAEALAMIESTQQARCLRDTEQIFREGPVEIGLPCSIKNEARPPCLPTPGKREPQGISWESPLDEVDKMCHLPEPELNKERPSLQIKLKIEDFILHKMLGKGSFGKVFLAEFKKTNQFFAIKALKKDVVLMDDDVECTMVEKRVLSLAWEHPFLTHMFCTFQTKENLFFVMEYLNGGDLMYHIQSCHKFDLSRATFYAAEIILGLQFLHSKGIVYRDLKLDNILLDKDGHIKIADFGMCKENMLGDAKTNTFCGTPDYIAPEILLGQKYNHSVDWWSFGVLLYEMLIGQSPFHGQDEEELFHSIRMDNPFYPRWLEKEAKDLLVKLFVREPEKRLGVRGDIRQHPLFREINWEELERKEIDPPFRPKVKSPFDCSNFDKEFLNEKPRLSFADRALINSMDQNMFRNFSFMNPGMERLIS
MAP2K2, sequence (P36507 whole entry): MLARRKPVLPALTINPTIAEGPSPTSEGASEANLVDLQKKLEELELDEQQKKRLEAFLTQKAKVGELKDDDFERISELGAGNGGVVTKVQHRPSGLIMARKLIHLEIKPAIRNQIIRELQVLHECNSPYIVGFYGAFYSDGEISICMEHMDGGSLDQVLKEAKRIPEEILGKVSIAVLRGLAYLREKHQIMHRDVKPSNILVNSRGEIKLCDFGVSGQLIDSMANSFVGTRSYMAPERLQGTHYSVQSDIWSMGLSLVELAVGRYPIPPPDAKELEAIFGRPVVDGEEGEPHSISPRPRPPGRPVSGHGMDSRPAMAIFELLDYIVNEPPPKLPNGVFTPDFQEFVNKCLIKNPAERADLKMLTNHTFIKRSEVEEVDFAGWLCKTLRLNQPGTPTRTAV

For the compound `CN1CCN(c2ccc(Nc3ncc(C#N)c(Nc4ccccc4C(N)=O)n3)cc2)CC1.Cl` [TCMDC-134116], the IC50 is 0.35 µM and 0.29 µM in [1]; 2 µM and 1.1 µM in [2]; 1.2 µM and 0.91 µM in experiment [3]; greater than 20 µM in [4]; 2 µM in [5]; 0.83 µM and 0.98 µM in [6]. For the same compound, the half-inhibitory concentration (IC50) in experiment [7] is 4 µM; in experiment [8], greater than 20 µM; in experiment [9], 0.21 µM and 0.27 µM; in experiment [10], 0.1 µM and 0.092 µM.
`Cl.NCC1(c2nc(-c3ccc(Cl)c(O)c3)c(-c3ccncc3)[nH]2)CCCCC1` [TCMDC-141154]: the IC50 was greater than 20 µM in [1]; greater than 20 µM in experiment [2]; 1.1 µM and 1.4 µM in experiment [3]; greater than 20 µM in experiment [4]; 1.1 µM and 0.9 µM in experiment [5]; 9 µM and > 20 µM in [6]. For the same compound, the 50% inhibitory concentration (IC50) in [7], in experiment [8], in experiment [9] and in experiment [10] was greater than 20 µM each time.
As to `CN(C)CC(O)COc1ccc(Nc2ncc([N+](=O)[O-])c(Nc3ccccc3O)n2)cc1.O=C(O)C(F)(F)F` (stereo not drawn) [TCMDC-141399], the IC50 in [1], in [2], in experiment [3], in experiment [4], in [5] and in experiment [6] was greater than 20 µM throughout. Further, the 50% inhibitory concentration (IC50) in [7] is greater than 20 µM; in experiment [8] it was greater than 20 µM; in [9], greater than 20 µM; in experiment [10], 1.9 µM.
